Reference: patent US9738932B2, “Biomarkers for cardiovascular side-effects induced by cox-2 inhibitory compounds” (FIRALIS SAS, priority 2005, dated 2017)

System: mRNA expression in cardiovascular tissues
Test: Affymetrix GeneChip mRNA expression profiling of monkey tissues (iliac vein, pulmonary vein, aorta, carotid artery, heart) after two-week oral-gavage treatment
[1] = iliac vein, Vioxx animal A60055

## CS(=O)(=O)c1ccc(C2=C(c3ccccc3)C(=O)OC2)cc1 [Vioxx®, rofecoxib]
16 tissues, ANOVA p<0.05, 50 mg/kg/day, two weeks
  expression of MHC class I classical and non-classical molecules, MHC class II molecules and their receptors: significant increases
[1]
  ACE (209749_s_at) mRNA expression, fold change vs control: 1.3 fold
  B2M (216231_s_at) mRNA expression, fold change vs control: 1.4 fold
  BCL6 (215990_s_at) mRNA expression, fold change vs control: 1.3 fold
  BTN2A2 (205298_s_at) mRNA expression, fold change vs control: 1.4 fold
  CCR1 (205098_at) mRNA expression, fold change vs control: 1.4 fold
  CD2 (205831_at) mRNA expression, fold change vs control: 1.4 fold
  CD48 (204118_at) mRNA expression, fold change vs control: 1.5 fold
  CD53 (203416_at) mRNA expression, fold change vs control: 1.5 fold
  CDC2 (210559_s_at) mRNA expression, fold change vs control: 1.5 fold
  CYBB (203922_s_at) mRNA expression, fold change vs control: 1.4 fold
  EMP3 (203729_at) mRNA expression, fold change vs control: 1.4 fold
  FCER1G (204232_at) mRNA expression, fold change vs control: 1.4 fold
  FCGR2A (203561_at) mRNA expression, fold change vs control: 1.5 fold
  FCGRT (218831_s_at) mRNA expression, fold change vs control: 1.4 fold
  FKBP11 (219117_s_at) mRNA expression, fold change vs control: 1.4 fold
  FKBP11 (219118_at) mRNA expression, fold change vs control: 1.5 fold
  GP6 (220336_s_at) mRNA expression, fold change vs control: 1.4 fold
  HCLS1 (202957_at) mRNA expression, fold change vs control: 1.3 fold
  HEM1 (209734_at) mRNA expression, fold change vs control: 1.5 fold
  HLA-A (210514_x_at) mRNA expression, fold change vs control: 1.3 fold
  HLA-A (213932_x_at) mRNA expression, fold change vs control: 1.5 fold
  HLA-C (211799_x_at) mRNA expression, fold change vs control: 1.4 fold
  HLA-E (200904_at) mRNA expression, fold change vs control: 1.4 fold
  HLA-F (221978_at) mRNA expression, fold change vs control: 1.3 fold
  ICAM1 (202637_s_at) mRNA expression, fold change vs control: 1.3 fold
  IL13RA1 (210904_s_at) mRNA expression, fold change vs control: 1.2 fold
  PIK3CD (203879_at) mRNA expression, fold change vs control: 1.2 fold
  PRKCBP1 (209048_s_at) mRNA expression, fold change vs control: 1.3 fold
  PRKCBP1 (209049_s_at) mRNA expression, fold change vs control: 1.5 fold
  PTPN7 (204852_s_at) mRNA expression, fold change vs control: 1.4 fold
  SIGIRR (52940_at) mRNA expression, fold change vs control: 1.2 fold
  STAT1 (200887_s_at) mRNA expression, fold change vs control: 1.5 fold
  STAT1 (AFFX-HUMISGF3A/M97935_3_at) mRNA expression, fold change vs control: 1.4 fold
  STAT3 (208992_s_at) mRNA expression, fold change vs control: 1.5 fold
  TCIRG1 (204158_s_at) mRNA expression, fold change vs control: 1.2 fold
  THY1 (213869_x_at) mRNA expression, fold change vs control: 1.3 fold
  TMPO (209753_s_at) mRNA expression, fold change vs control: 1.5 fold
  TMSB10 (217733_s_at) mRNA expression, fold change vs control: 1.4 fold
  TNFRSF21 (218856_at) mRNA expression, fold change vs control: 1.5 fold
  TRB@ (210915_x_at) mRNA expression, fold change vs control: 1.3 fold
  TRB@ (213193_x_at) mRNA expression, fold change vs control: 1.5 fold
Iliac vein, animal A60055
  209813_x_at fold change vs control: 2.4 fold
  AIF1 (209901_x_at) fold change vs control: 3.0 fold
  AIF1 (213095_x_at) fold change vs control: 3.2 fold
  B2M (201891_s_at) fold change vs control: 3.0 fold
  BCL3 (204908_s_at) fold change vs control: 1.7 fold
  BTN3A1 (207485_x_at) fold change vs control: 4.0 fold
  BTN3A3 (38241_at) fold change vs control: 2.3 fold
  BTN3A3 (204820_s_at) fold change vs control: 4.1 fold
  BTN3A3 (204821_at) fold change vs control: 3.3 fold
  C1QA (218232_at) fold change vs control: 1.7 fold
  C1QB (202953_at) fold change vs control: 1.8 fold
  C1R (212067_s_at) fold change vs control: 2.0 fold
  C1S (208747_s_at) fold change vs control: 3.6 fold
  C2 (203052_at) fold change vs control: 3.3 fold
  C4A (208451_s_at) fold change vs control: 3.8 fold
  CASP1 (209970_x_at) fold change vs control: 2.3 fold
  CASP1 (211367_s_at) fold change vs control: 2.7 fold
  CCL2 (216598_s_at) fold change vs control: 150.9 fold
  CCL3 (205114_s_at) fold change vs control: 3.8 fold
  CCL5 (1405_i_at) fold change vs control: 2.8 fold
  CCL8 (214038_at) fold change vs control: 8.8 fold
  CCL18 (209924_at) fold change vs control: 2.0 fold
  CCL19 (210072_at) fold change vs control: 3.0 fold
  CCNB2 (202705_at) fold change vs control: 2.9 fold
  CD3D (213539_at) fold change vs control: 1.9 fold
  CD8A (205758_at) fold change vs control: 2.3 fold
  CD14 (201743_at) fold change vs control: 2.0 fold
  CD74 (209619_at) fold change vs control: 2.8 fold
  CLU (208791_at) fold change vs control: 2.2 fold
  CMAH (210571_s_at) fold change vs control: 2.0 fold
  CTSC (201487_at) fold change vs control: 2.1 fold
  CTSK (202450_s_at) fold change vs control: 1.5 fold
  CTSS (202902_s_at) fold change vs control: 1.6 fold
  CX3CR1 (205898_at) fold change vs control: 3.6 fold
  CXCL9 (203915_at) fold change vs control: 9.3 fold
  CXCL10 (204533_at) fold change vs control: 19.8 fold
  CXCL11 (210163_at) fold change vs control: 9.7 fold
  CXCL11 (211122_s_at) fold change vs control: 6.6 fold
  CXCL12 (209687_at) fold change vs control: 1.6 fold
  CYBA (203028_s_at) fold change vs control: 1.8 fold
  CYBB (203923_s_at) fold change vs control: 1.6 fold
  CYP1B1 (202436_s_at) fold change vs control: 2.6 fold
  CYP3A5 (214234_s_at) fold change vs control: 3.9 fold
  CYP11B1 (214630_at) fold change vs control: 2.5 fold
  DUSP6 (208893_s_at) fold change vs control: 3.0 fold
  ECGF1 (204858_s_at) fold change vs control: 3.3 fold
  ECM1 (209365_s_at) fold change vs control: 2.0 fold
  F2RL1 (206429_at) fold change vs control: 2.0 fold
  F13A1 (203305_at) fold change vs control: 1.8 fold
  FCGR1A (214511_x_at) fold change vs control: 2.0 fold
  FCGR3A (204006_s_at) fold change vs control: 2.5 fold
  G1P2 (205483_s_at) fold change vs control: 4.5 fold
  GZMB (210164_at) fold change vs control: 3.2 fold
  HCA127 (220040_x_at) fold change vs control: 2.0 fold
  HCK (208018_s_at) fold change vs control: 1.8 fold
  HFE (210864_x_at) fold change vs control: 1.8 fold
